Measurements published in the supplement of paper PMC10307832.

Key:
Assay in all cases: relative viability (nuclei count vs DMSO), 5 days (fraction); higher = more cells survive
[1] = compound: CCOC1=CC=CC=C1N=NC2=C(NN(C2=O)C3=NC(=CS3)C4=CC=CC=C4)C [BAM7] + CS(=O)(=O)N1CCN(Cc2cc3nc(-c4cccc5[nH]ncc45)nc(N4CCOCC4)c3s2)CC1 [Pictilisib] (partner 1 µM)
Method in brief: (§1)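 Nuclei were stained with Hoechst during a one-step fixation (final 0.05% Triton X-100, 1% formaldehyde, 1 ug/ml Hoechst) carried out 5 days after dosing, then counted on 4× images. The cells, lung cancer lines in 1536-well plates, had been dosed by pin tool the day after seeding with one drug alone or a fixed anchor-drug dose plus five library-drug doses (not always all listed) in √10 steps. Relative viability is the nuclei count in treated wells divided by that in vehicle wells, and each value is the median of duplicate plates.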

[2] = compound: CCOC1=CC=CC=C1N=NC2=C(NN(C2=O)C3=NC(=CS3)C4=CC=CC=C4)C [BAM7] + Cc1cc(Nc2cc(N3CCN(C)CC3)nc(Sc3ccc(NC(=O)C4CC4)cc3)n2)n[nH]1 [Tozasertib] (partner 0.1 µM)
Method in brief: as §1

[3] = compound: CCOC1=CC=CC=C1N=NC2=C(NN(C2=O)C3=NC(=CS3)C4=CC=CC=C4)C [BAM7] + C[C@]1(O)C[C@@H](c2nc(-c3ccc4ccc(-c5ccccc5)nc4c3)c3c(N)nccn32)C1 [Linsitinib] (partner 1 µM)
Method in brief: as §1

[4] = compound: CCOC1=CC=CC=C1N=NC2=C(NN(C2=O)C3=NC(=CS3)C4=CC=CC=C4)C [BAM7] + COc1cccc2cc(-c3nc([C@H]4CC[C@H](C(=O)O)CC4)n4ncnc(N)c34)[nH]c12 [OSI-027] (partner 0.5 µM)
Method in brief: as §1

[5] = compound: CCOC1=CC=CC=C1N=NC2=C(NN(C2=O)C3=NC(=CS3)C4=CC=CC=C4)C [BAM7] + C[C@@H](Oc1cc(-c2cnn(C3CCNCC3)c2)cnc1N)c1c(Cl)ccc(F)c1Cl [Crizotinib] (partner 1 µM)
Method in brief: as §1

| Cell Line | relative viability ([1]; first compound 0.5 µM) | relative viability ([1]; first compound 5 µM) | relative viability ([1]; first compound 15.81 µM) | relative viability ([1]; first compound 50 µM) | relative viability ([2]; first compound 0.5 µM) | relative viability ([2]; first compound 5 µM) | relative viability ([2]; first compound 15.81 µM) | relative viability ([2]; first compound 50 µM) | relative viability ([3]; first compound 0.5 µM) | relative viability ([3]; first compound 5 µM) | relative viability ([3]; first compound 15.81 µM) | relative viability ([3]; first compound 50 µM) | relative viability ([4]; first compound 0.5 µM) | relative viability ([4]; first compound 5 µM) | relative viability ([4]; first compound 15.81 µM) | relative viability ([4]; first compound 50 µM) | relative viability ([5]; first compound 0.5 µM) | relative viability ([5]; first compound 5 µM) | relative viability ([5]; first compound 15.81 µM) | relative viability ([5]; first compound 50 µM) |
| --- | --- | --- | --- | --- | --- | --- | --- | --- | --- | --- | --- | --- | --- | --- | --- | --- | --- | --- | --- | --- |
| 201T | 0.637 | 0.625 | 0.593 | 0.69 | 0.737 | 0.805 | 0.673 | 0.726 | 1.04 | 1.09 | 0.963 | 1.03 | 0.772 | 0.662 | 0.708 | 0.705 | 0.957 | 1.02 | 0.876 | 0.883 |
| A549 | 0.566 | 0.507 | 0.483 | 0.508 | – | – | – | – | 0.658 | 0.617 | 0.57 | 0.559 | – | – | – | – | 0.85 | 0.861 | 0.745 | 0.781 |
| A-427 | 0.557 | 0.75 | 0.676 | 0.72 | 0.202 | 0.199 | 0.216 | 0.202 | 1.14 | 1.1 | 1.05 | 1.14 | 0.58 | 0.466 | 0.491 | 0.49 | 0.927 | 1 | 0.814 | 0.817 |
| ABC-1 | 0.746 | 0.674 | 0.984 | 0.857 | 0.164 | 0.162 | 0.183 | 0.227 | 0.883 | 1.18 | 0.815 | 0.758 | 0.491 | 0.504 | 0.474 | 0.593 | 1.49 | 1.34 | 0.987 | 1.21 |
| BEN | 0.611 | 0.642 | 0.518 | 0.59 | 0.559 | 0.442 | 0.59 | 0.423 | 0.914 | 0.97 | 0.876 | 0.898 | 0.306 | 0.299 | 0.314 | 0.326 | 0.866 | 0.977 | 0.845 | 0.83 |
| CAL-12T | 0.467 | 0.526 | 0.413 | 0.466 | 0.311 | 0.257 | 0.236 | 0.24 | 0.929 | 0.743 | 0.75 | 0.852 | 0.553 | 0.492 | 0.432 | 0.845 | 0.737 | 0.941 | 0.695 | 0.652 |
| COR-L23 | 0.832 | 0.855 | 0.743 | 0.872 | 0.177 | 0.197 | 0.133 | 0.183 | 0.979 | 0.989 | 0.852 | 0.852 | 0.772 | 0.74 | 0.802 | 0.858 | 0.785 | 0.685 | 0.601 | 0.604 |
| COR-L 105 | 0.366 | 0.427 | 0.432 | 0.455 | 0.359 | 0.435 | 0.357 | 0.359 | 1.14 | 0.801 | 1 | 0.97 | 0.688 | 0.579 | 0.73 | 0.713 | 0.917 | 1.02 | 0.787 | 0.718 |
| Calu-6 | 1.01 | 0.98 | 0.893 | 0.823 | – | – | – | – | 1.1 | 1.11 | 0.913 | 1.02 | – | – | – | – | 0.883 | 0.903 | 0.783 | 0.675 |
| ChaGo-K-1 | 0.647 | 0.878 | 0.789 | 0.929 | 0.226 | 0.229 | 0.197 | 0.262 | – | – | – | – | 0.444 | 0.481 | 0.52 | 0.525 | 1.16 | 1.05 | 1.12 | 1.15 |
| EBC-1 | 0.359 | 0.375 | 0.328 | 0.307 | – | – | – | – | 0.856 | 1.07 | 0.876 | 0.85 | – | – | – | – | 0.216 | 0.201 | 0.191 | 0.175 |
| EKVX | 0.458 | 0.512 | 0.335 | 0.415 | 0.424 | 0.36 | 0.183 | 0.333 | 1.05 | 1.04 | 0.729 | 0.831 | 0.648 | 0.768 | 0.557 | 0.662 | 1.15 | 0.963 | 0.54 | 0.711 |
| EMC-BAC-2 | 0.521 | 0.542 | 0.595 | 0.559 | 0.302 | 0.291 | 0.289 | 0.272 | 0.904 | 0.838 | 0.786 | 0.823 | 0.378 | 0.384 | 0.355 | 0.461 | 0.849 | 0.852 | 0.74 | 0.857 |
| EPLC-272H | 0.358 | 0.327 | 0.323 | 0.347 | 0.252 | – | 0.275 | 0.334 | 1.45 | 1.11 | 1.33 | 1.24 | 0.289 | – | 0.277 | 0.32 | 0.928 | 0.986 | 1.02 | 0.982 |
| H3255 | 0.544 | 0.652 | 0.568 | 0.579 | 0.652 | 0.757 | 0.376 | 0.497 | 0.901 | 1.02 | 0.606 | 0.848 | 0.593 | 0.622 | 0.443 | 0.568 | 0.981 | 0.883 | 0.795 | 0.814 |
| HARA | 0.327 | 0.267 | 0.334 | 0.264 | 0.117 | 0.116 | 0.093 | 0.0898 | 1.08 | 1.14 | 0.864 | 1.08 | 0.53 | 0.63 | 0.468 | 0.485 | 1.1 | 1.15 | 0.887 | 1 |
| HCC-15 | 0.818 | 0.802 | 0.764 | 0.747 | 0.471 | 0.493 | 0.346 | 0.284 | 0.914 | 0.905 | 0.859 | 0.853 | 0.727 | 0.696 | 0.7 | 0.758 | 0.812 | 0.811 | 0.785 | 0.724 |
